Experimental data taken from US12398121B2 (Nuvation Bio Inc., priority 2018, dated 2025).

Legend:
Human recombinant PARP1 = Human recombinant PARP1 (Homo sapiens, UniProt P09874); experiment: RBC HotSpot PARP1 radioisotope-based filter binding assay; type: biochemical; conditions: 2.5 nM enzyme, histone H4, 10 μM 32P-NAD+; read-out: PARP1 IC50
Method: (§1) The following methods are for evaluating the in vitro biology properties of the test articles. • a. RBC HotSpot Poly(ADP-ribose) Polymerases 1 (PARP1) and Poly(ADP-ribose) Polymerases 2 (PARP2) Assays: The assay principle is radioisotope-based filter binding assay where incorporation of radioisotope-labeled NAD^+ into the substrate captured on filter is detected after washout free NAD^+. Data were analyzed using Excel and GraphPad Prism software for IC50 curve fits. Each assay was conducted with PJ34 as a positive control. • i. PARP1 assay: Human recombinant PARP1 at a final concentration of 2.5 nM was combined with histone H4 (20 μM) and test articles at various concentrations in reaction buffer (50 mM Tris-HCL, pH 8.0, 50 mM NaCl, 10 mM MgCl2, 1 mM DTT, 1% DMSO, and 20 μg/mL activated DNA). The solution was inoculated for 20 min at room temperature and the reaction initiated by adding [adenylate-^32P]-Nicotinamide Adenine Dinucleotide, ^32P-NAD^+ at a final concentration of 10 μM. After incubation for 2 hour at room temperature, the reaction mixture was filtered and washed with 0.75% phosphoric acid for radioactivity detection. • ii. PARP2 assay: Human recombinant PARP2 at a final concentration of 2.5 nM was combined with histone H3 (20 μM) and test articles at various concentrations in reaction buffer (50 mM Tris-HCL, pH 8.0, 50 mM NaCl, 10 mM MgCl2, 1 mM DTT, 1% DMSO, and 20 μg/mL activated DNA). The solution was inoculated for 20 min at room temperature and the reaction was initiated by adding [adenylate-^32P]-Nicotinamide Adenine Dinucleotide, ^32P-NAD^+ at a final concentration of 10 μM. After incubation for 2 hour at room temperature, the reaction mixture was filtered and washed with 0.75% phosphoric acid for radioactivity detection. • b. AR binding assay: AR in LNCaP cytosol was used for determining the binding affinity of test articles and the reference compound—progesterone (Sigma, Cat: E2785, St. Louis, MO). IC50s were determined using 8 concentrations/compound. Cytosol was plated at 200 μg/well (100 μL) into a 96-well conical polypropylene plate (Agilent, Cat: 5042-1385, Santa Clara, CA) and mixed with 3 μL of test compound. After adding 100 μL of ^3H-methyltrienolone (PerkinElmer, Cat: NET590250UC, San Jose, CA), the plate was sealed and shaken at 300 rpm at 4° C. for 24 hours. Post incubation, 100 μL of radioligand adsorption buffer containing 10 mM Tris-HCl, pH 7.4; 1.5 mM EDTA; 1 mM DTT; 0.25% charcoal; 0.0025% dextran was added to individual well. Plate was shaken for 15 min at 4′C followed by centrifugation at 3000 rpm for 30 min at 4° C. 150 μL of supernatant was transferred into scint-tube (PerkinElmer, Cat: 6000192) and mixed with 2 mL of Ultima Gold Cocktail (PerkinElmer, Cat: 6013329). Radioactivity was counted using a TriCarb 2910 TR scintillation counter (PerkinElmer). Inhibition of the radioactivity by test articles were calculated using the equation below: % Inhibition=(1−(Assay well−Average_LC)/(Average_HC−Average_LC))×100%.

Human recombinant PARP2 = Human recombinant PARP2 (Homo sapiens, UniProt Q9UGN5); experiment: RBC HotSpot PARP2 radioisotope-based filter binding assay; type: biochemical; conditions: 2.5 nM enzyme, histone H3, 10 μM 32P-NAD+; read-out: PARP2 IC50
Chain of Human recombinant PARP2 (Q9UGN5 whole entry): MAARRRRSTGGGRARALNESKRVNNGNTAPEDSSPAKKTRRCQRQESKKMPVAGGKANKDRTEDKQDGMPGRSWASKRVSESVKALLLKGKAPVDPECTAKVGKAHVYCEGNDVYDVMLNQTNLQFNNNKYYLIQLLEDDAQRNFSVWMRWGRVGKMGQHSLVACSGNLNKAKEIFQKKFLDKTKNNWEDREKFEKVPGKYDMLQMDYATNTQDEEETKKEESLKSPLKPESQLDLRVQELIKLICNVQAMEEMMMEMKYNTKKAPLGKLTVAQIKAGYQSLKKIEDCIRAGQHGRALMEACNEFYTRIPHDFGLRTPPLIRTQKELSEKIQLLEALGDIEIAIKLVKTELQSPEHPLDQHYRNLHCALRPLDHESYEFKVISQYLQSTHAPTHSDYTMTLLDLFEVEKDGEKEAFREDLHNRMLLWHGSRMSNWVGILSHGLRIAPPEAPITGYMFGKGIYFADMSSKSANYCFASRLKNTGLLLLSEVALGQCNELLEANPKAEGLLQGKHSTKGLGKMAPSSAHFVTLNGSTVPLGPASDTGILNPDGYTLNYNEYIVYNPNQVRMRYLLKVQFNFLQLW
Method: as §1

LNCaP cells = experiment: Cell proliferation assay (CellTiter Glo), LNCaP; type: cell-based; conditions: Homo sapiens, 168 h, cell growth inhibition, six or seven days total treatment, read-out: LNCaP IC50
Method: (§2) IC50 values were calculated and graphed using the model “log(inhibitor) vs. response—Variable slope” included in GraphPad Prism 5 (San Diego, CA). The Ki values were further calculated using the equation below where [L] was the radioligand concentration (1 nM) using in this study. Kd value was 0.332 nM. Ki=IC50/(1+[L]/Kd) c. AR transactivation: Human AR cloned into a CMV vector backbone was used for the transactivation study. HEK-293 cells were plated at 80,000 cells per well of a 24 well plate in DME+5% csFBS. Twenty four hours later, the cells were transfected using Lipofectamine (Invitrogen, Carlsbad, CA) with 0.25 μg GRE-LUC, 0.01 μg CMV-LUC (renilla luciferase) and 25 ng of the AR in OPTIMEM medium. The cells were treated 24 hrs after transfection with various ligands (10^−12 to 10^−5 M final concentrations) and luciferase assay were performed 48 hours after transfection. Firefly values were normalized to renilla luciferase values and the values were represented as relative light units (RLU). Agonist and antagonist assays for the test article were performed in the absence and in the combination with 0.1 nM R1881, respectively. Data were represented as EC50 (for agonists) and IC50 (for antagonists) obtained from four parameter logistics curve. Cell culture and proliferation assays: LNCaP, PC-3, 22RV1, MCF-7, HT-29, and HCT-116 cells were procured from American Type Culture Collection (ATCC). Cells were cultured in medium recommended by the ATCC. Cell culture medium was obtained from Fisher scientific (Waltham, MA) and serum was obtained from Hyclone (San Angelo, TX).
Cells were plated at varying density in the respective growth medium in 96 well plates. 24 hr later, cells were treated, in triplicate or quadruplicate, with test articles prepared in a range of concentrations by series dilution of DMSO stock solutions in growth medium and incubated for three to seven days. The number of viable 22RV1 and HT-29 cells was measured using CellTiter Glo assay (CTG, Promega, Madison, WI) after three days of treatment. The other types of cancer cells were re-treated at three or four days and the number of viable cells was measured using CTG assay after a total treatment time of six or seven days. Cell viability data were plotted using GraphPad Prism (GraphPad Software, Inc., San Diego, CA). In addition, a nonlinear regression model with a sigmoidal dose response and variable slope within GraphPad Prism was used to calculate the IC50 value of individual test articles. Additional cell proliferation assays: Other cancer cell lines are tested in a cell proliferation assay. For example, SK-OV-3 or OVCAR3 ovarian cancer cells are tested. Cells are cultured in medium recommended by the supplier (e.g., ATCC or JCRB Cell Bank), at 37° C. in a 5% CO2 environment. For the proliferation assay, cells are plated in the growth medium in 96 well plates. Seeding density is adjusted according to the cell type. 24 hr later, cells are treated, in triplicate or quadruplicate, with test articles prepared in a range of concentrations by series dilution of DMSO stock solutions in growth medium, and typically incubated for three to seven days, with test article-containing medium replaced after three or four days. The number of viable cells is measured using CellTiter Glo assay (CTG, Promega, Madison, WI) or similar. Cell viability data are plotted using GraphPad Prism (GraphPad Software, Inc., San Diego, CA). […]

PC-3 cells = experiment: Cell proliferation assay (CellTiter Glo), PC-3; type: cell-based; conditions: Homo sapiens, PC-3, 168 h; cell growth inhibition, six or seven days total treatment; read-out: PC-3 IC50
Method: as §2
(§3) Cells were plated at varying density in the respective growth medium in 96 well plates. 24 hr later, cells were treated, in triplicate or quadruplicate, with test articles prepared in a range of concentrations by series dilution of DMSO stock solutions in growth medium and incubated for three to seven days. The number of viable 22RV1 and HT-29 cells was measured using CellTiter Glo assay (CTG, Promega, Madison, WI) after three days of treatment. The other types of cancer cells were re-treated at three or four days and the number of viable cells was measured using CTG assay after a total treatment time of six or seven days. Cell viability data were plotted using GraphPad Prism (GraphPad Software, Inc., San Diego, CA). In addition, a nonlinear regression model with a sigmoidal dose response and variable slope within GraphPad Prism was used to calculate the IC50 value of individual test articles. Additional cell proliferation assays: Other cancer cell lines are tested in a cell proliferation assay. For example, SK-OV-3 or OVCAR3 ovarian cancer cells are tested. […] The number of viable cells is measured using CellTiter Glo assay (CTG, Promega, Madison, WI) or similar. […]

HCT-116 cells = experiment: Cell proliferation assay (CellTiter Glo), HCT-116; type: cell-based; conditions: Homo sapiens, HCT-116, 168 h; cell growth inhibition, six or seven days total treatment; read-out: HCT-116 IC50
Method: as §2, §3

22RV1 cells = experiment: Cell proliferation assay (CellTiter Glo), 22RV1; type: cell-based; conditions: Homo sapiens, 22Rv1, 72 h; cell growth inhibition, three days of treatment; read-out: 22RV1 IC50
Method: as §2
Cells were plated at varying density in the respective growth medium in 96 well plates. 24 hr later, cells were treated, in triplicate or quadruplicate, with test articles prepared in a range of concentrations by series dilution of DMSO stock solutions in growth medium and incubated for three to seven days. The number of viable 22RV1 and HT-29 cells was measured using CellTiter Glo assay (CTG, Promega, Madison, WI) after three days of treatment. The other types of cancer cells were re-treated at three or four days and the number of viable cells was measured using CTG assay after a total treatment time of six or seven days. Cell viability data were plotted using GraphPad Prism (GraphPad Software, Inc., San Diego, CA). In addition, a nonlinear regression model with a sigmoidal dose response and variable slope within GraphPad Prism was used to calculate the IC50 value of individual test articles. Additional cell proliferation assays: Other cancer cell lines are tested in a cell proliferation assay. For example, SK-OV-3 or OVCAR3 ovarian cancer cells are tested. Cells are cultured in medium recommended by the supplier (e.g., ATCC or JCRB Cell Bank), at 37° C. in a 5% CO2 environment. For the proliferation assay, cells are plated in the growth medium in 96 well plates. Seeding density is adjusted according to the cell type. 24 hr later, cells are treated, in triplicate or quadruplicate, with test articles prepared in a range of concentrations by series dilution of DMSO stock solutions in growth medium, and typically incubated for three to seven days, with test article-containing medium replaced after three or four days. The number of viable cells is measured using CellTiter Glo assay (CTG, Promega, Madison, WI) or similar. Cell viability data are plotted using GraphPad Prism (GraphPad Software, Inc., San Diego, CA). In addition, a nonlinear regression model with a sigmoidal dose response and variable slope within GraphPad Prism is used to calculate the IC50 value of individual test articles. Similarly, HEK-293 and HeLa calls can also be tested by methods known in the art. • f. Nuclear translocation: LNCaP cells are plated on coverslips in 24 well plates in growth medium. Twenty-four hours after plating, medium is changed to RPMI+1% csFBS and the cells are maintained in this medium for two days. Medium is replaced again and the cells are treated. […]

Chain of Human recombinant PARP1 (P09874 whole entry): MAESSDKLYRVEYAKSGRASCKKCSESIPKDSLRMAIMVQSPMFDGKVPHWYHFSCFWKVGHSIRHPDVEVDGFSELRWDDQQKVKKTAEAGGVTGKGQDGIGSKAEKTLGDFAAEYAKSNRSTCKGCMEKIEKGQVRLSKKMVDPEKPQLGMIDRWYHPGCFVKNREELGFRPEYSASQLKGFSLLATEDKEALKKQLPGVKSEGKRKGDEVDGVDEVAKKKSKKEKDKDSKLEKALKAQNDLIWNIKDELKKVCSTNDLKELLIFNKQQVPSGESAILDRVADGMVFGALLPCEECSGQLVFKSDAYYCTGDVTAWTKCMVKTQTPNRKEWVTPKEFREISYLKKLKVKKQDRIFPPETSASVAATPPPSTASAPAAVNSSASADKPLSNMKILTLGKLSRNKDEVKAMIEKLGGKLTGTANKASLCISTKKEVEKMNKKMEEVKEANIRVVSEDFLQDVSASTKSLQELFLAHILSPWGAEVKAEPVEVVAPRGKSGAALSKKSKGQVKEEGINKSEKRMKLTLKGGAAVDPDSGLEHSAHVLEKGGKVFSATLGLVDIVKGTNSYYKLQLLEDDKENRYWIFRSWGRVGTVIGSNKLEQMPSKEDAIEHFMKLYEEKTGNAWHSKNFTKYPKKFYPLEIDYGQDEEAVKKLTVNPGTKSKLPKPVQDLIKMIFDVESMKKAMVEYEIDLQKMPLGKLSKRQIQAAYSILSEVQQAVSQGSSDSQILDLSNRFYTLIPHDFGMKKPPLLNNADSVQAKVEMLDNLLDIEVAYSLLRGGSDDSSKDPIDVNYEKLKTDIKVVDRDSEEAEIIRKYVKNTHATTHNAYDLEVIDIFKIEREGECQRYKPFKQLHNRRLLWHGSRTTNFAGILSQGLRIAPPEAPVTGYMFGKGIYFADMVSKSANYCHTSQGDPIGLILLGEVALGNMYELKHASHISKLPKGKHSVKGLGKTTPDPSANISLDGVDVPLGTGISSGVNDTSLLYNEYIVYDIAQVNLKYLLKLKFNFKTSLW

| Structure (SMILES) | IC50 (Human recombinant PARP1) [nM] | IC50 (Human recombinant PARP2) [nM] | IC50 (LNCaP cells) [nM] | IC50 (PC-3 cells) [nM] | IC50 (HCT-116 cells) [nM] | IC50 (22RV1 cells) [nM] |
| --- | --- | --- | --- | --- | --- | --- |
| Cn1ncnc1[C@H]1c2n[nH]c(=O)c3cc(F)cc(c23)N[C@@H]1c1ccc(NC(=O)CCCCCNC(=O)c2ccc(N3C(=S)N(c4ccc(C#N)c(C(F)(F)F)c4)C(=O)C3(C)C)cc2F)cc1 [Compound 1.3, 4-(3-(4-cyano-3-(trifluoromethyl)phenyl)-5,5-dimethyl-4-oxo-2-thioxoimidazolidin-1-yl)-2-fluoro-N-(6-((4-((8S,9R)-5-fluoro-9-(1-methyl-1H-1,2,4-triazol-5-yl)-3-oxo-2,7,8,9-tetrahydro-3H-pyrido[4,3,2-de]phthalazin-8-yl)phenyl)amino)-6-oxohexyl)benzamide] | 2 | 0.5 | 490 | 8800 | > 30000 | – |
| Cn1ncnc1[C@H]1c2n[nH]c(=O)c3cc(F)cc(c23)N[C@@H]1c1ccc(NC(=O)CCCCCO[C@H]2CC[C@H]3[C@@H]4CC[C@H]5CC(=O)CC[C@]5(C)[C@H]4CC[C@]23C)cc1 [Compound 1.4, 6-(((5S,8R,9S,10S,13S,14S,17S)-10,13-dimethyl-3-oxohexadecahydro-1H-cyclopenta[a]phenanthren-17-yl)oxy)-N-(4-(5-fluoro-9-(1-methyl-1H-1,2,4-triazol-5-yl)-3-oxo-2,7,8,9-tetrahydro-3H-pyrido[4,3,2-de]phthalazin-8-yl)phenyl)hexanamide] | 2 | 0.4 | 90 | 20 | 110 | – |
| C[C@](O)(CS(=O)(=O)c1ccc(OCCCCCCN2CCN(C(=O)c3cc(Cc4n[nH]c(=O)c5ccccc45)ccc3F)CC2)cc1)C(=O)Nc1ccc(C#N)c(C(F)(F)F)c1 [Compound 1.96, (R)-N-(4-cyano-3-(trifluoromethyl)phenyl)-3-(4-(6-(4-(2-fluoro-5-((4-oxo-3,4-dihydrophthalazin-1-yl)methyl)benzoyl)piperazin-1-yl)hexyloxy)phenylsulfonyl)-2-hydroxy-2-methylpropanamide] | 6 | 0.5 | – | – | – | – |
| C[C@]12CCCC[C@@H]1CC[C@@H]1[C@@H]2CC[C@]2(C)[C@@H](OCCCCCC(=O)N3CCN(C(=O)c4cc(Cc5n[nH]c(=O)c6ccccc56)ccc4F)CC3)CC[C@@H]12 [Compound 1.115] | 25.7 | 1.5 | – | – | – | – |
| C[C@]12CC[C@@H]3c4ccc(O)cc4CC[C@H]3[C@@H]1CC[C@@H]2OCCCCCC(=O)N1CCN(C(=O)c2cc(Cc3n[nH]c(=O)c4ccccc34)ccc2F)CC1 [Compound 2.2, 4-(4-fluoro-3-(4-(6-((8R,9S,13S,14S,17S)-3-hydroxy-13-methyl-7,8,9,11,12,13,14,15,16,17-decahydro-6H-cyclopenta[a]phenanthren-17-yloxy)hexanoyl)piperazine-1-carbonyl)benzyl)phthalazin-1(2H)-one] | – | – | – | – | – | 390 |
| Cn1ncnc1[C@@H]1c2n[nH]c(=O)c3cc(F)cc(c23)N[C@H]1c1ccc(NC(=O)CCCCCNC(=O)c2ccc(N3C(=S)N(c4ccc(C#N)c(C(F)(F)F)c4)C(=O)C3(C)C)cc2F)cc1 [ent-1.3, 4-(3-(4-cyano-3-(trifluoromethyl)phenyl)-5,5-dimethyl-4-oxo-2-thioxoimidazolidin-1-yl)-2-fluoro-N-(6-((4-((8R,9S)-5-fluoro-9-(1-methyl-1H-1,2,4-triazol-5-yl)-3-oxo-2,7,8,9-tetrahydro-3H-pyrido[4,3,2-de]phthalazin-8-yl)phenyl)amino)-6-oxohexyl)benzamide] | 79 | 16 | > 100000 | – | – | – |
